In patent US7491819B1 (priority 2004, dated 2009):

What follows are molecules tested against T1, HIV-integrase (Human immunodeficiency virus type 1 group M subtype B, UniProt P12497) (assay: HIV-Integrase Inhibition Activity (SPA bead strand-transfer assay)). Details: Table 1; read-out: Activity (HIV-integrase inhibition, IC50 class).
T1 construct: Recombinant integrase (0.26 ng) was incubated with the beads
Type: biochemical
Outline: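 Strand-transfer read-out: CPM from P33-labelled target DNA (0.1 fmol) joined to bead-bound biotin substrate DNA (5 pmole), with EDTA stop at 10 mM final. Integrase (0.26 ng) prebound to streptavidin SPA beads 90 min, 37° C, and washed before adding inhibitor.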

| Compound | IC50 |
| --- | --- |
| COc1cc(CNC(=O)c2nc3n(c(=O)c2O)CCOC3(C)C)ccc1F [Example 245, Pyrimido[2,1-c][1,4]oxazine-2-carboxamide, N-[(4-fluoro-3-methoxyphenyl)methyl]-4,6,7,9-tetrahydro-3-hydroxy-9,9-dimethyl-4-oxo-] | 2 to 100 nM |
| CC1(C)OCCn2c1nc(C(=O)NCc1ccccc1N1CCCCC1)c(O)c2=O [Example 254, Pyrimido[2,1-c][1,4]oxazine-2-carboxamide, 4,6,7,9-tetrahydro-3-hydroxy-9,9-dimethyl-4-oxo-N-[[2-(1-piperidinyl)phenyl]methyl]-] | 2 to 100 nM |
| Cc1ccncc1-c1ccccc1CNC(=O)c1nc2n(c(=O)c1O)CCOC2(C)C [Example 191, Pyrimido[2,1-c][1,4]oxazine-2-carboxamide, 4,6,7,9-tetrahydro-3-hydroxy-9,9-dimethyl-N-[[2-(4-methyl-3-pyridinyl)phenyl]methyl]-4-oxo-] | 2 to 100 nM |
| CC1(C)OCCn2c1nc(C(=O)NCc1ccccc1)c(O)c2=O [Example 219, Pyrimido[2,1-c][1,4]oxazine-2-carboxamide, 4,6,7,9-tetrahydro-3-hydroxy-9,9-dimethyl-4-oxo-N-(phenylmethyl)-] | 2 to 100 nM |
| Cc1cnc(-c2cc(F)ccc2CNC(=O)c2nc3n(c(=O)c2O)CCOC3(C)C)o1 [Example 86, Pyrimido[2,1-c][1,4]oxazine-2-carboxamide, N-[[4-fluoro-2-(5-methyl-2-oxazolyl)phenyl]methyl]-4,6,7,9-tetrahydro-3-hydroxy-9,9-dimethyl-4-oxo-] | 2 to 100 nM |
| CCOP(=O)(O)c1cc(F)ccc1CNC(=O)c1nc2n(c(=O)c1O)CCOC2(C)C [Example 282, Phosphonic acid, [5-fluoro-2-[[[(4,6,7,9-tetrahydro-3-hydroxy-9,9-dimethyl-4-oxopyrimido[2,1-c][1,4]oxazin-2-yl)carbonyl]amino]methyl]phenyl]-, monoethyl ester] | 2 to 100 nM |
| Cc1nnc(Nc2cc(F)ccc2CNC(=O)c2nc3n(c(=O)c2O)CCOC3(C)C)s1 [Example 116, Pyrimido[2,1-c][1,4]oxazine-2-carboxamide, N-[[4-fluoro-2-[(5-methyl-1,3,4-thiadiazol-2-yl)amino]phenyl]methyl]-4,6,7,9-tetrahydro-3-hydroxy-9,9-dimethyl-4-oxo-] | 2 to 100 nM |
| COc1cc(F)ccc1CNC(=O)c1nc2n(c(=O)c1O)CCOC2(C)C [Example 41, Pyrimido[2,1-c][1,4]oxazine-2-carboxamide, N-[(4-fluoro-2-methoxyphenyl)methyl]-4,6,7,9-tetrahydro-3-hydroxy-9,9-dimethyl-4-oxo-] | 2 to 100 nM |
| COc1cc(CNC(=O)c2nc3n(c(=O)c2O)CCOC3(C)C)ccc1O [Example 225, Pyrimido[2,1-c][1,4]oxazine-2-carboxamide, 4,6,7,9-tetrahydro-3-hydroxy-N-[(4-hydroxy-3-methoxyphenyl)methyl]-9,9-dimethyl-4-oxo-] | 2 to 100 nM |
| CC(=O)N(C)c1cc(F)ccc1CNC(=O)c1nc2n(c(=O)c1O)CCOC2(C)C [Example 136, Pyrimido[2,1-c][1,4]oxazine-2-carboxamide, N-[[2-(acetylmethylamino)-4-fluorophenyl]methyl]-4,6,7,9-tetrahydro-3-hydroxy-9,9-dimethyl-4-oxo-] | 2 to 100 nM |
| COC(=O)c1ncn(-c2cc(F)ccc2CNC(=O)c2nc3n(c(=O)c2O)CCOC3(C)C)n1 [Example 60, 1H-1,2,4-Triazole-3-carboxylic acid, 1-[5-fluoro-2-[[[(4,6,7,9-tetrahydro-3-hydroxy-9,9-dimethyl-4-oxopyrimido[2,1-c][1,4]oxazin-2-yl)carbonyl]amino]methyl]phenyl], methyl este] | 2 to 100 nM |
| CCC1(CC)OCCn2c1nc(C(=O)NCc1ccc(F)c(C)c1)c(O)c2=O [Example 43] | 2 to 100 nM |
| CC1(C)OCCn2c1nc(C(=O)NCc1ccccc1-c1ccc3c(c1)OCO3)c(O)c2=O [Example 187, Pyrimido[2,1-c][1,4]oxazine-2-carboxamide, N-[[2-(1,3-benzodioxol-5-yl)phenyl]methyl]-4,6,7,9-tetrahydro-3-hydroxy-9,9-dimethyl-4-oxo-] | 2 to 100 nM |
| CC1(C)OCCn2c1nc(C(=O)NCc1ccccc1-n1cncn1)c(O)c2=O [Example 216, Pyrimido[2,1-c][1,4]oxazine-2-carboxamide, 4,6,7,9-tetrahydro-3-hydroxy-9,9-dimethyl-4-oxo-N-[[2-(1H-1,2,4-triazol-1-yl)phenyl]methyl]-] | 2 to 100 nM |
| CC1(C)OCCn2c1nc(C(=O)NCc1cc(F)cc(F)c1)c(O)c2=O [Example 146, Pyrimido[2,1-c][1,4]oxazine-2-carboxamide, N-[(3,5-difluorophenyl)methyl]-4,6,7,9-tetrahydro-3-hydroxy-9,9-dimethyl-4-oxo-] | 2 to 100 nM |
| COP(=O)(OC)c1cc(F)ccc1CNC(=O)c1nc2n(c(=O)c1O)CCOC2(C)C [Example 281, Phosphonic acid, [5-fluoro-2-[[[(4,6,7,9-tetrahydro-3-hydroxy-9,9-dimethyl-4-oxopyrimido[2,1-c][1,4]oxazin-2-yl)carbonyl]amino]methyl]phenyl]-, dimethyl ester] | 2 to 100 nM |

| Compound | IC50 |
| --- | --- |
| CCC1(CC)OCCn2c1nc(C(=O)NCc1ccccc1N1CCCCS1(=O)=O)c(O)c2=O [Example 207, Pyrimido[2,1-c][1,4]oxazine-2-carboxamide, 4,6,7,9-tetrahydro-3-hydroxy-9,9-diethyl-4-oxo-N-[[2-(tetrahydro-1,1-dioxido-2H-1,2-thiazin-2-yl)phenyl]methyl]] | 2 to 100 nM |
| Cc1ccc(Cl)c(CNC(=O)c2nc3n(c(=O)c2O)CCOC3(C)C)c1F [Example 274, Pyrimido[2,1-c][1,4]oxazine-2-carboxamide, N-[(6-chloro-2-fluoro-3-methylphenyl)methyl]-4,6,7,9-tetrahydro-3-hydroxy-9,9-dimethyl-4-oxo-] | 2 to 100 nM |
| CC1(C)OCCn2c1nc(C(=O)NCc1ccc(F)cc1C#CCS(C)(=O)=O)c(O)c2=O [Example 92, Pyrimido[2,1-c][1,4]oxazine-2-carboxamide, N-[[4-fluoro-2-[3-(methylsulfonyl)-1-propynyl]phenyl]methyl]-4,6,7,9-tetrahydro-3-hydroxy-9,9-dimethyl-4-oxo-] | 2 to 100 nM |
| CCC1OCCn2c1nc(C(=O)NCc1ccc(C)c(C)c1)c(O)c2=O (stereo not shown) [Example 13, Pyrimido[2,1-c][1,4]oxazine-2-carboxamide, N-[(3,4-dimethylphenyl)methyl]-9-ethyl-4,6,7,9-tetrahydro-3-hydroxy-4-oxo-] | 2 to 100 nM |
| Cn1ccc2c(CNC(=O)c3nc4n(c(=O)c3O)CCOC4(C)C)cccc21 [Example 279, Pyrimido[2,1-c][1,4]oxazine-2-carboxamide, 4,6,7,9-tetrahydro-3-hydroxy-9,9-dimethyl-N-[(1-methyl-1H-indol-4-yl)methyl]-4-oxo-] | 2 to 100 nM |
| CC1(C)OCCn2c1nc(C(=O)NCc1ccccc1-c1ccc(F)nc1)c(O)c2=O [Example 151] | 2 to 100 nM |
| CC1(C)OCCn2c1nc(C(=O)NCc1ncc(F)cc1F)c(O)c2=O [Example 28, Pyrimido[2,1-c][1,4]oxazine-2-carboxamide, N-[(3,5-difluoro-2-pyridinyl)methyl]-4,6,7,9-tetrahydro-3-hydroxy-9,9-dimethyl-4-oxo-] | 2 to 100 nM |
| CC1(C)OCCn2c1nc(C(=O)NCc1ccccc1Br)c(O)c2=O [Example 147, Pyrimido[2,1-c][1,4]oxazine-2-carboxamide, N-[(2-bromophenyl)methyl]-4,6,7,9-tetrahydro-3-hydroxy-9,9-dimethyl-4-oxo-] | 2 to 100 nM |
| CC1(C)OCCn2c1nc(C(=O)NCc1ccc(F)cc1-c1ccn[nH]1)c(O)c2=O [Example 85, Pyrimido[2,1-c][1,4]oxazine-2-carboxamide, N-[[4-fluoro-2-(1H-pyrazol-5-yl)phenyl]methyl]-4,6,7,9-tetrahydro-3-hydroxy-9,9-dimethyl-4-oxo-] | 2 to 100 nM |
| CC1(C)OCCn2c1nc(C(=O)NCc1ccc(F)cc1-c1ccc(=O)[nH]c1)c(O)c2=O [Example 79, Pyrimido[2,1-c][1,4]oxazine-2-carboxamide, N-[[2-(1,6-dihydro-6-oxo-3-pyridinyl)-4-fluorophenyl]methyl]-4,6,7,9-tetrahydro-3-hydroxy-9,9-dim ethyl-4-oxo-] | 2 to 100 nM |
| CNS(=O)(=O)c1cc(F)ccc1CNC(=O)c1nc2n(c(=O)c1O)CCOC2(C)C [Example 109, Pyrimido[2,1-c][1,4]oxazine-2-carboxamide, N-[[4-fluoro-2-[(methylamino)sulfonyl]phenyl]methyl]-4,6,7,9-tetrahydro-3-hydroxy-9,9-dimethyl-4-oxo-] | 2 to 100 nM |
| CCC1(CC)OCCn2c1nc(C(=O)NCc1ccc(F)cc1-n1cncn1)c(O)c2=O [Example 119, Pyrimido[2,1-c][1,4]oxazine-2-carboxamide, 9,9-diethyl-N-[[4-fluoro-2-(1H-1,2,4-triazol-1-yl)phenyl]methyl]-4,6,7,9-tetrahydro-3-hydroxy-4-oxo-] | 2 to 100 nM |
| Cc1ccc(CNC(=O)c2nc3n(c(=O)c2O)CCOC3(C)C)cc1F [Example 248, Pyrimido[2,1-c][1,4]oxazine-2-carboxamide, N-[(3-fluoro-4-methylphenyl)methyl]-4,6,7,9-tetrahydro-3-hydroxy-9,9-dimethyl-4-oxo-] | 2 to 100 nM |
| CNC(=O)c1cc(F)ccc1CNC(=O)c1nc2n(c(=O)c1O)CCOC2(C)C [Example 49, Pyrimido[2,1-c][1,4]oxazine-2-carboxamide, N-[[4-fluoro-2-[(methylamino)carbonyl]phenyl]methyl]-4,6,7,9-tetrahydro-3-hydroxy-9,9-dimethyl-4-oxo-] | 2 to 100 nM |
| CC1(C)OCCn2c1nc(C(=O)NCc1cccc(F)c1)c(O)c2=O [Example 220, Pyrimido[2,1-c][1,4]oxazine-2-carboxamide, N-[(3-fluorophenyl)methyl]-4,6,7,9-tetrahydro-3-hydroxy-9,9-dimethyl-4-oxo-] | 2 to 100 nM |
